Data set [1] is described as follows: Ionized fraction at pH 7.4 calculated from pKa. Particulars: for Ionized fraction fanion: pH 7.4, Eq. (6), from literature acidic pKa; for Ionized fraction fcation: pH 7.4, Eq. (5), from literature basic pKa.
The conditions of data set [2]: cited from earlier work.
For data set [3] the following is noted: marketed drugs; ref [1],[7]; cited from earlier work.
For data set [4] the following is noted: ref [1]; cited from earlier work.
The format of data set [5] is in vivo, CD-1 mice. Conditions: CD-1, mouse, brain and plasma, intraperitoneal.
Data set [6] can be described thus: Equilibrium dialysis, unbound fraction in plasma. The class given is in vitro ADME, CD-1 mice. Particulars: CD-1, mouse, pH 7.4.
Data set [7] in a line: Equilibrium dialysis, unbound fraction in brain homogenate. In kind it is in vitro ADME, CD-1 mice. Particulars: CD-1, mouse, brain homogenate (10 % w/v), pH 7.4.
[8] abbreviates: marketed drugs, external validation, ref [1],[7].

Like-named read-outs stand apart in the source and are kept apart here.

As for `CCCC(C)(COC(N)=O)COC(N)=O` [Meprobamate], the Ionized fraction fanion in data set [1] is reported as 0.0001. The “Kp,uu,brain” value in data set [2] (setting [8]) is 0.42. In addition, in data set [3], the “fu,b” value is reported as 0.760. Also, in data set [4], the Acidic_pKa is 11.3.
For the compound `CN(C)CCC=C1c2ccccc2C=Cc2ccccc21` [Cyclobenzaprine], the Ionized fraction fcation in data set [1] was 0.9844. In data set [2] (mouse, in vivo), the “Kp,brain” value was 12.0 and the “Kp,uu,brain” value was 1.62. The “fu,b” value in data set [3] is listed as 0.007. In addition, in data set [4], the Basic_pKa is 9.2.
Regarding `Cc1nc2n(c(=O)c1CCN1CCC(c3noc4cc(F)ccc34)CC1)CCCC2` [Risperidone], in data set [1], the Ionized fraction fcation was 0.9091. Moreover, the “Kp,uu,brain” value in data set [2] (setting [8]) is 0.26. Also, the Basic_pKa in data set [4] is given as 8.4.
Regarding `O=C1NC(=O)C(c2ccccc2)(c2ccccc2)N1` [Phenytoin], the Ionized fraction fanion in data set [1] is reported as 0.1118. Besides, in data set [2] (setting [8]), the “Kp,brain” value is 0.63 and the “Kp,uu,brain” value is 0.28. Moreover, the Acidic_pKa in data set [4] is reported as 8.30.
As for `O=C1CC2(CCCC2)CC(=O)N1CCCCN1CCN(c2ncccn2)CC1` [Buspirone], the Ionized fraction fcation in data set [1] is listed as 0.5573.
For the compound `CCN1CCCC1CNC(=O)c1cc(S(N)(=O)=O)ccc1OC` (stereo not shown) [Sulpiride], in data set [1], the Ionized fraction fcation is 0.9693 and the Ionized fraction fanion is on record as 0.0017. Besides, in data set [2] (mouse, in vivo), the “Kp,brain” value is reported as 0.08 and the “Kp,uu,brain” value was 0.06. Also, in data set [4], the Acidic_pKa was 10.2 and the Basic_pKa is 8.9.
With `Nc1nnc(-c2cccc(Cl)c2Cl)c(N)n1` [Lamotrigine], in data set [2] (mouse, in vivo), the “Kp,brain” value is 1.10 and the “Kp,uu,brain” value is 0.64. The “fu,b” value in data set [3] is 0.220.
Take `CCOc1ccc(NC(C)=O)cc1` [Phenacetin]: in data set [5], the Kp uu at 2 h is 0.55. The figures for the free fraction (fraction unbound) at 5 h, 1 μM in data set [6] and in data set [7] were 0.701 and 0.442, respectively.
Consider `COc1ccc(C(CN(C)C)C2(O)CCCCC2)cc1` (stereo not shown) [Venlafaxine], for which the Ionized fraction fcation in data set [1] is listed as 0.9876. In data set [2] (setting [8]), the “Kp,brain” value is given as 4.20 and the “Kp,uu,brain” value was 0.98. For the same compound, the “fu,b” value in data set [3] is 0.210. Also, in data set [4], the Basic_pKa was 9.3.
For the compound `CN[C@H]1CC[C@@H](c2ccc(Cl)c(Cl)c2)c2ccccc21` [Sertraline], in data set [1], the Ionized fraction fcation is 0.9921. In addition, the Basic_pKa in data set [4] is recorded as 9.5.
With `C#CCN(C)[C@H](C)Cc1ccccc1` [Selegiline], the Ionized fraction fcation in data set [1] is recorded as 0.5573. In addition, in data set [2] (mouse, in vivo), the “Kp,brain” value was 3.70 and the “Kp,uu,brain” value is 1.30. The “fu,b” value in data set [3] was 0.056. Besides, the Basic_pKa in data set [4] is recorded as 7.5.
`CN(C)CCCC1(c2ccc(F)cc2)OCc2cc(C#N)ccc21` (stereo not shown) [Citalopram]: the Ionized fraction fcation in data set [1] is reported as 0.9937. Also, in data set [2] (mouse, in vivo), the “Kp,brain” value was 5.10 and the “Kp,uu,brain” value is 0.68. For the same compound, the “fu,b” value in data set [3] is reported as 0.031. In addition, the Basic_pKa in data set [4] is 9.6.
Take `Cc1ccc(-c2nc3ccc(C)cn3c2CC(=O)N(C)C)cc1` [Zolpidem]: the Ionized fraction fcation in data set [1] was 0.2403. In data set [2] (mouse, in vivo), the “Kp,brain” value is recorded as 0.29 and the “Kp,uu,brain” value was 0.24. Moreover, the “fu,b” value in data set [3] is 0.200. For the same compound, in data set [4], the Basic_pKa was 6.9.
Turning to `CCCC(C)(COC(N)=O)COC(=O)NC(C)C` (stereo not shown) [Carisoprodol], in data set [1], the Ionized fraction fanion was 0.0003. In addition, in data set [2] (setting [8]), the “Kp,brain” value is 0.66 and the “Kp,uu,brain” value is 0.34. For the same compound, the “fu,b” value in data set [3] is 0.202. Besides, the Acidic_pKa in data set [4] was 11.0.
As to `CNCCC(Oc1ccc(C(F)(F)F)cc1)c1ccccc1` (stereo not shown) [Fluoxetine], the Ionized fraction fcation in data set [1] is recorded as 0.9980. In data set [2] (setting [8]), the “Kp,brain” value was 12.0 and the “Kp,uu,brain” value is 0.89.
Take `Cc1ncc2n1-c1ccc(Cl)cc1C(c1ccccc1F)=NC2` [Midazolam]: in data set [2] (setting [8]), the “Kp,uu,brain” value is given as 0.14. Besides, in data set [3], the “fu,b” value is 0.027.
Consider `CCN(CC)CCNC(=O)c1cc(Cl)c(N)cc1OC` [Metoclopramide], for which, in data set [1], the Ionized fraction fcation was 0.9937 and the Ionized fraction fanion is on record as 0.0001. For the same compound, in data set [2] (mouse, in vivo), the “Kp,brain” value is recorded as 1.20 and the “Kp,uu,brain” value was 0.52. The “fu,b” value in data set [3] is reported as 0.310.
Consider `O=c1n(CCCN2CCN(c3cccc(Cl)c3)CC2)nc2ccccn12` [Trazodone], for which, in data set [1], the Ionized fraction fcation was 0.3869. Besides, the “Kp,brain” value in data set [2] (setting [8]) is 0.61. In addition, the “Kp,uu,brain” value in data set [2] (mouse, in vivo) is reported as 0.56. Also, the “fu,b” value in data set [3] was 0.047. Also, in data set [4], the Basic_pKa was 7.2.
`COC(=O)C(c1ccccc1)C1CCCCN1` (stereo not shown) [Methylphenidate]: in data set [1], the Ionized fraction fcation is 0.9994. In addition, in data set [2] (mouse, in vivo), the “Kp,brain” value is recorded as 12.0 and the “Kp,uu,brain” value is 3.43. Moreover, the “fu,b” value in data set [3] was 0.220. The Basic_pKa in data set [4] is listed as 10.6.
`CC(=O)CC(c1ccccc1)c1c(O)c2ccccc2oc1=O` (stereo not shown) [Warfarin]: the Kp uu at 2 h in data set [5] came to 0.19. The free fraction (fraction unbound) at 5 h, 1 μM came out at 0.097 in data set [6] and 0.281 in data set [7].
On to `CCC(=O)O[C@](Cc1ccccc1)(c1ccccc1)[C@H](C)CN(C)C` [Propoxyphene], for which the Ionized fraction fcation in data set [1] was 0.9844. Also, in data set [2] (mouse, in vivo), the “Kp,brain” value is listed as 2.90 and the “Kp,uu,brain” value is listed as 0.85. Moreover, the “fu,b” value in data set [3] is on record as 0.033.
Turning to `NC(=O)N1c2ccccc2C=Cc2ccccc21` [Carbamazepine], the Ionized fraction fanion in data set [1] is reported as 0.0003. For the same compound, in data set [2] (mouse, in vivo), the “Kp,brain” value is 0.76 and the “Kp,uu,brain” value is recorded as 0.27. For the same compound, the Acidic_pKa in data set [4] is given as 10.9.
Consider `CCCC(C)C1(CC)C(=O)NC(=S)NC1=O` (stereo not shown) [Thiopental], for which the Ionized fraction fanion in data set [1] is reported as 0.2847. In addition, the “fu,b” value in data set [3] is recorded as 0.146. Besides, in data set [4], the Acidic_pKa is listed as 7.80.
`COc1ccc2c3c1O[C@H]1C(=O)CC[C@H]4[C@@H](C2)N(C)CC[C@]314` [Hydrocodone]: the Ionized fraction fcation in data set [1] is listed as 0.9264. Moreover, in data set [2] (mouse, in vivo), the “Kp,brain” value is reported as 2.10 and the “Kp,uu,brain” value was 1.96. The “fu,b” value in data set [3] is reported as 0.550. Besides, the Basic_pKa in data set [4] was 8.5.
With `OCCOCCN1CCN(C(c2ccccc2)c2ccc(Cl)cc2)CC1` (stereo not shown) [Hydroxyzine], in data set [1], the Ionized fraction fcation is given as 0.3339. Also, in data set [2] (mouse, in vivo), the “Kp,brain” value is listed as 7.70 and the “Kp,uu,brain” value is recorded as 1.51. Further, the “fu,b” value in data set [3] is 0.010. In data set [4], the Basic_pKa is given as 7.1.
With `O=C(CCCN1CCC(O)(c2ccc(Cl)cc2)CC1)c1ccc(F)cc1` [Haloperidol], the Ionized fraction fcation in data set [1] is reported as 0.8882. Also, in data set [2] (setting [8]), the “Kp,brain” value is reported as 13.0 and the “Kp,uu,brain” value is listed as 1.06. For the same compound, the “fu,b” value in data set [3] is 0.007.
In the case of `Fc1ccc([C@@H]2CCNC[C@H]2COc2ccc3c(c2)OCO3)cc1` [Paroxetine], the Ionized fraction fcation in data set [1] was 0.9987. Besides, in data set [2] (mouse, in vivo), the “Kp,brain” value is listed as 3.30 and the “Kp,uu,brain” value is recorded as 0.86. The “fu,b” value in data set [3] was 0.004.
As to `CC(C)NCC(O)COc1cccc2ccccc12` (stereo not shown) [Propranolol], in data set [5], the Kp uu at 2 h is 3.08. The same compound displayed a fraction unbound at 5 h, 1 μM in data set [7] of 0.022.
In the case of `C=C[C@H]1C[N@@]2CC[C@H]1C[C@@H]2[C@@H](O)c1ccnc2ccc(OC)cc12` [Quinidine], the Kp uu at 2 h in data set [5] stood at 0.05. This compound returned a fraction unbound at 5 h, 1 μM in data set [6] of 0.286.
Consider `CN1CC[C@]23c4c5ccc(O)c4O[C@H]2[C@@H](O)C=C[C@H]3[C@H]1C5` [Morphine], for which, in data set [1], the Ionized fraction fcation is recorded as 0.8882 and the Ionized fraction fanion is 0.0038.
For the compound `CN(C)CCCN1c2ccccc2Sc2ccc(Cl)cc21` [Chlorpromazine], the Ionized fraction fcation in data set [1] is on record as 0.9901. In data set [2] (setting [8]), the “Kp,brain” value was 23.0 and the “Kp,uu,brain” value was 0.65.
Consider `CNCCC=C1c2ccccc2CCc2ccccc21` [Nortriptyline], for which the Ionized fraction fcation in data set [1] is 0.9980. Also, in data set [2] (mouse, in vivo), the “Kp,brain” value is on record as 11.0 and the “Kp,uu,brain” value is 1.63. Also, in data set [3], the “fu,b” value is reported as 0.005. The Basic_pKa in data set [4] is recorded as 10.1.
In the case of `CN1CCN(C2=Nc3cc(Cl)ccc3Nc3ccccc32)CC1` [Clozapine], in data set [1], the Ionized fraction fcation was 0.3339. Further, in data set [2] (setting [8]), the “Kp,brain” value is 4.10 and the “Kp,uu,brain” value was 1.01. Besides, the “fu,b” value in data set [3] is given as 0.009.
`COCCCC/C(=N\OCCN)c1ccc(C(F)(F)F)cc1` [Fluvoxamine]: the Ionized fraction fcation in data set [1] is given as 0.9901.

The record behind these values is paper PMC10828645 (Heliyon, 2024).
